From the OligoGym collection
Several values for one entry are separate records, joined by “and”; a condition that tells them apart may be missing. Equal values may be shown once. HELM strings list units from the 5' end as sugar, base in round brackets, then linkage (d deoxyribose, r ribose, m 2'-O-methyl, p phosphodiester). Strings are as the collection lists them, not checked against the first reports. ss, as = sense and antisense strand; [fl2r] = 2'-fluoro

Conditions: siRNA
Further: test system not given here.

Substance	target mRNA knockdown
RNA1{r(G)p.r(U)p.r(G)p.r(A)p.r(A)p.r(G)p.r(U)p.r(C)p.r(A)p.r(A)p.r(C)p.r(A)p.r(U)p.r(G)p.r(C)p.r(C)p.r(U)p.r(G)p.r(C)p.d(T)p.d(T)}|RNA2{r(G)p.r(C)p.r(A)p.r(G)p.r(G)p.r(C)p.r(A)p.r(U)p.r(G)p.r(U)p.r(U)p.r(G)p.r(A)p.r(C)p.r(U)p.r(U)p.r(C)p.r(A)p.r(C)p.d(T)p.d(T)}$$$RNA1{StrandType:ss}|RNA2{StrandType:as}$	50% and 70%
RNA1{r(G)p.r(U)p.r(U)p.[fl2r](C)p.r(A)p.r(C)p.r(G)p.r(U)p.r(C)p.r(C)p.[fl2r](U)p.r(A)p.r(C)p.r(C)p.r(C)p.r(C)p.r(U)p.r(U)p.r(U)p.r(T)p.r(T)}|RNA2{r(A)p.r(A)p.r(A)p.r(G)p.r(G)p.r(G)p.r(G)p.[fl2r](U)p.r(A)p.r(G)p.r(G)p.r(A)p.r(C)p.r(G)p.[fl2r](U)p.r(G)p.r(A)p.r(A)p.r(C)p.r(T)p.r(T)}$$$RNA1{StrandType:ss}|RNA2{StrandType:as}$	65%
RNA1{r(G)p.r(U)p.r(U)p.r(C)p.r(A)p.r(C)p.r(G)p.r(U)p.r(C)p.r(C)p.r(U)p.r(A)p.r(C)p.r(C)p.r(C)p.r(C)p.r(U)p.r(U)p.r(U)p.r(T)p.r(T)}|RNA2{r(A)p.r(A)p.r(A)p.r(G)p.r(G)p.r(G)p.r(G)p.[fl2r](U)p.r(A)p.r(G)p.r(G)p.r(A)p.r(C)p.r(G)p.r(U)p.r(G)p.r(A)p.r(A)p.r(C)p.r(T)p.r(T)}$$$RNA1{StrandType:ss}|RNA2{StrandType:as}$	69%
RNA1{r(U)p.[fl2r](U)p.r(A)p.r(C)p.r(C)p.r(C)p.r(C)p.r(G)p.r(A)p.r(U)p.r(U)p.[fl2r](C)p.r(A)p.r(G)p.r(C)p.r(C)p.r(U)p.r(C)p.r(U)p.r(T)p.r(T)}|RNA2{r(A)p.r(G)p.r(A)p.r(G)p.r(G)p.r(C)p.[fl2r](U)p.r(G)p.r(A)p.r(A)p.r(U)p.r(C)p.r(G)p.r(G)p.r(G)p.r(G)p.[fl2r](U)p.r(A)p.r(A)p.r(T)p.r(T)}$$$RNA1{StrandType:ss}|RNA2{StrandType:as}$	82%
RNA1{r(U)p.[fl2r](U)p.r(A)p.r(C)p.r(C)p.r(C)p.r(C)p.r(G)p.r(A)p.r(U)p.r(U)p.r(C)p.r(A)p.r(G)p.r(C)p.r(C)p.r(U)p.r(C)p.r(U)p.r(T)p.r(T)}|RNA2{r(A)p.r(G)p.r(A)p.r(G)p.r(G)p.r(C)p.r(U)p.r(G)p.r(A)p.r(A)p.r(U)p.r(C)p.r(G)p.r(G)p.r(G)p.r(G)p.r(U)p.[fl2r](A)p.r(A)p.r(T)p.r(T)}$$$RNA1{StrandType:ss}|RNA2{StrandType:as}$	69%
RNA1{r(U)p.m(U)p.m(A)p.r(A)p.r(A)p.r(G)p.m(G)p.r(G)p.r(C)p.r(G)p.r(A)p.r(G)p.r(A)p.r(A)p.r(G)p.r(A)p.r(C)p.r(C)p.r(G)p.r(T)p.r(T)}|RNA2{r(C)p.r(G)p.r(G)p.r(U)p.r(C)p.r(U)p.r(U)p.r(C)p.r(U)p.r(C)p.r(G)p.r(C)p.r(C)p.r(C)p.r(U)p.r(U)p.m(U)p.r(A)p.r(A)p.r(T)p.r(T)}$$$RNA1{StrandType:ss}|RNA2{StrandType:as}$	85%
RNA1{r(U)p.m(U)p.m(G)p.r(G)p.r(G)p.r(G)p.m(A)p.m(A)p.r(G)p.r(C)p.r(G)p.r(G)p.r(C)p.r(C)p.r(G)p.r(G)p.r(C)p.r(G)p.r(G)p.r(T)p.r(T)}|RNA2{r(C)p.r(C)p.r(G)p.r(C)p.r(C)p.r(G)p.r(G)p.r(C)p.r(C)p.r(G)p.r(C)p.r(U)p.r(U)p.r(C)p.r(C)p.r(C)p.m(C)p.r(A)p.r(A)p.r(T)p.r(T)}$$$RNA1{StrandType:ss}|RNA2{StrandType:as}$	78%
RNA1{r(U)p.m(U)p.r(A)p.m(C)p.r(A)p.r(A)p.r(A)p.m(G)p.m(G)p.r(A)p.r(U)p.r(C)p.r(U)p.r(C)p.r(C)p.r(U)p.r(C)p.r(C)p.r(C)p.r(T)p.r(T)}|RNA2{r(G)p.r(G)p.r(G)p.r(A)p.r(G)p.r(G)p.r(A)p.r(G)p.r(A)p.r(U)p.r(C)p.r(C)p.r(U)p.r(U)p.m(U)p.r(G)p.m(U)p.r(A)p.r(A)p.r(T)p.r(T)}$$$RNA1{StrandType:ss}|RNA2{StrandType:as}$	72%
RNA1{r(U)p.m(U)p.r(A)p.m(C)p.r(A)p.r(A)p.r(A)p.r(G)p.r(G)p.m(A)p.r(U)p.r(C)p.r(U)p.r(C)p.r(C)p.r(U)p.r(C)p.r(C)p.r(C)p.r(T)p.r(T)}|RNA2{r(G)p.r(G)p.r(G)p.r(A)p.r(G)p.r(G)p.r(A)p.r(G)p.m(A)p.r(U)p.r(C)p.r(C)p.r(U)p.r(U)p.m(U)p.r(G)p.m(U)p.r(A)p.r(A)p.r(T)p.r(T)}$$$RNA1{StrandType:ss}|RNA2{StrandType:as}$	78%
RNA1{r(U)p.m(U)p.r(A)p.r(A)p.r(A)p.r(G)p.r(G)p.r(G)p.r(C)p.r(G)p.r(A)p.r(G)p.r(A)p.r(A)p.r(G)p.r(A)p.r(C)p.r(C)p.r(G)p.r(T)p.r(T)}|RNA2{r(C)p.r(G)p.r(G)p.r(U)p.r(C)p.r(U)p.r(U)p.r(C)p.r(U)p.r(C)p.r(G)p.r(C)p.r(C)p.r(C)p.r(U)p.r(U)p.m(U)p.r(A)p.r(A)p.r(T)p.r(T)}$$$RNA1{StrandType:ss}|RNA2{StrandType:as}$	87%
RNA1{r(U)p.m(U)p.r(A)p.r(A)p.r(G)p.r(G)p.r(A)p.r(G)p.r(A)p.r(A)p.r(G)p.r(C)p.m(U)p.m(G)p.r(A)p.r(C)p.r(G)p.r(G)p.r(C)p.r(T)p.r(T)}|RNA2{r(G)p.r(C)p.r(C)p.r(G)p.r(U)p.m(C)p.r(A)p.r(G)p.r(C)p.r(U)p.r(U)p.r(C)p.r(U)p.r(C)p.r(C)p.r(U)p.m(U)p.r(A)p.r(A)p.r(T)p.r(T)}$$$RNA1{StrandType:ss}|RNA2{StrandType:as}$	82%
RNA1{r(U)p.m(U)p.r(A)p.r(A)p.r(G)p.r(G)p.r(A)p.r(G)p.r(A)p.r(A)p.r(G)p.r(C)p.m(U)p.r(G)p.r(A)p.r(C)p.r(G)p.r(G)p.r(C)p.r(T)p.r(T)}|RNA2{r(G)p.r(C)p.r(C)p.r(G)p.r(U)p.m(C)p.r(A)p.r(G)p.r(C)p.r(U)p.r(U)p.r(C)p.r(U)p.r(C)p.r(C)p.r(U)p.m(U)p.r(A)p.r(A)p.r(T)p.r(T)}$$$RNA1{StrandType:ss}|RNA2{StrandType:as}$	67%
RNA1{r(U)p.m(U)p.r(A)p.r(A)p.r(G)p.r(G)p.r(A)p.r(G)p.r(A)p.r(A)p.r(G)p.r(C)p.r(U)p.r(G)p.r(A)p.r(C)p.r(G)p.r(G)p.r(C)p.r(T)p.r(T)}|RNA2{r(G)p.r(C)p.r(C)p.r(G)p.r(U)p.m(C)p.r(A)p.r(G)p.r(C)p.r(U)p.r(U)p.r(C)p.r(U)p.r(C)p.r(C)p.r(U)p.m(U)p.r(A)p.r(A)p.r(T)p.r(T)}$$$RNA1{StrandType:ss}|RNA2{StrandType:as}$	83%
RNA1{r(U)p.m(U)p.r(A)p.r(A)p.r(G)p.r(G)p.r(A)p.r(G)p.r(A)p.r(A)p.r(G)p.r(C)p.r(U)p.r(G)p.r(A)p.r(C)p.r(G)p.r(G)p.r(C)p.r(T)p.r(T)}|RNA2{r(G)p.r(C)p.r(C)p.r(G)p.r(U)p.r(C)p.r(A)p.r(G)p.r(C)p.r(U)p.r(U)p.r(C)p.r(U)p.r(C)p.r(C)p.r(U)p.m(U)p.r(A)p.r(A)p.r(T)p.r(T)}$$$RNA1{StrandType:ss}|RNA2{StrandType:as}$	69%
RNA1{r(U)p.m(U)p.r(A)p.r(C)p.r(A)p.r(A)p.r(A)p.r(G)p.r(G)p.r(A)p.r(U)p.r(C)p.r(U)p.r(C)p.r(C)p.r(U)p.r(C)p.r(C)p.r(C)p.r(T)p.r(T)}|RNA2{r(G)p.r(G)p.r(G)p.r(A)p.r(G)p.r(G)p.r(A)p.r(G)p.r(A)p.r(U)p.r(C)p.r(C)p.r(U)p.r(U)p.r(U)p.r(G)p.m(U)p.r(A)p.r(A)p.r(T)p.r(T)}$$$RNA1{StrandType:ss}|RNA2{StrandType:as}$	69%
RNA1{r(U)p.m(U)p.r(G)p.r(G)p.r(G)p.r(G)p.r(A)p.r(A)p.r(G)p.r(C)p.r(G)p.r(G)p.r(C)p.r(C)p.r(G)p.r(G)p.r(C)p.r(G)p.r(G)p.r(T)p.r(T)}|RNA2{r(C)p.r(C)p.r(G)p.r(C)p.r(C)p.r(G)p.r(G)p.r(C)p.r(C)p.r(G)p.r(C)p.r(U)p.r(U)p.r(C)p.r(C)p.r(C)p.m(C)p.r(A)p.r(A)p.r(T)p.r(T)}$$$RNA1{StrandType:ss}|RNA2{StrandType:as}$	82%
RNA1{r(U)p.r(A)p.r(A)p.r(G)p.r(A)p.r(U)p.r(G)p.r(U)p.r(U)p.r(C)p.r(A)p.r(U)p.r(C)p.r(G)p.r(A)p.r(G)p.r(U)p.r(C)p.r(C)p.d(T)p.d(T)}|RNA2{r(G)p.r(G)p.r(A)p.r(C)p.r(U)p.r(C)p.r(G)p.r(A)p.r(U)p.r(G)p.r(A)p.r(A)p.r(C)p.r(A)p.r(U)p.r(C)p.r(U)p.r(U)p.r(A)p.d(T)p.d(T)}$$$RNA1{StrandType:ss}|RNA2{StrandType:as}$	0%
RNA1{r(U)p.r(A)p.r(C)p.r(C)p.r(G)p.r(A)p.r(G)p.r(A)p.r(A)p.r(U)p.r(G)p.m(A)p.r(G)p.m(C)p.r(C)p.m(U)p.r(G)p.m(A)p.r(U)p.r(T)p.r(T)}|RNA2{m(A)p.r(U)p.m(C)p.r(A)p.m(G)p.r(G)p.m(C)p.r(U)p.m(C)p.r(A)p.m(U)p.r(U)p.m(C)p.r(U)p.m(C)p.r(G)p.m(G)p.r(U)p.m(A)p.r(T)p.r(T)}$$$RNA1{StrandType:ss}|RNA2{StrandType:as}$	23%
RNA1{r(U)p.r(C)p.[fl2r](C)p.r(A)p.r(A)p.r(G)p.r(C)p.r(U)p.r(U)p.r(C)p.r(C)p.r(U)p.r(C)p.r(G)p.r(U)p.[fl2r](U)p.[fl2r](G)p.r(G)p.r(U)p.r(T)p.r(T)}|RNA2{r(A)p.r(C)p.[fl2r](C)p.[fl2r](A)p.r(A)p.r(C)p.r(G)p.r(A)p.r(G)p.r(G)p.r(A)p.r(A)p.r(G)p.r(C)p.r(U)p.[fl2r](U)p.r(G)p.r(G)p.r(A)p.r(T)p.r(T)}$$$RNA1{StrandType:ss}|RNA2{StrandType:as}$	65%
RNA1{r(U)p.r(C)p.m(U)p.r(A)p.m(C)p.r(A)p.r(C)p.r(C)p.r(G)p.m(C)p.r(G)p.r(C)p.m(C)p.r(C)p.r(C)p.r(C)p.r(C)p.r(U)p.r(C)p.r(T)p.r(T)}|RNA2{r(G)p.r(A)p.r(G)p.r(G)p.r(G)p.r(G)p.r(G)p.r(G)p.r(C)p.r(G)p.r(C)p.r(G)p.r(G)p.m(U)p.r(G)p.m(U)p.r(A)p.r(G)p.r(A)p.r(T)p.r(T)}$$$RNA1{StrandType:ss}|RNA2{StrandType:as}$	73%
RNA1{r(U)p.r(C)p.m(U)p.r(A)p.r(C)p.r(A)p.r(C)p.r(C)p.r(G)p.r(C)p.r(G)p.r(C)p.r(C)p.r(C)p.r(C)p.r(C)p.r(C)p.r(U)p.r(C)p.r(T)p.r(T)}|RNA2{r(G)p.r(A)p.r(G)p.r(G)p.r(G)p.r(G)p.r(G)p.r(G)p.r(C)p.r(G)p.r(C)p.r(G)p.r(G)p.r(U)p.r(G)p.m(U)p.r(A)p.r(G)p.r(A)p.r(T)p.r(T)}$$$RNA1{StrandType:ss}|RNA2{StrandType:as}$	79%
